Results from US20050222100A1 (priority 2002, published 2005).

Experiment: Pilot study: irregular vaginal bleeding
Assay type: in vivo, post-menopausal women
Details: 2.5 mg tibolone per day added to 20 mg tamoxifen per day
From the text: The women, all below the age of 65 years, were postmenopausal for at least three years at the time of diagnosis. Their follicle stimulating hormone (FSH) levels were greater than 40 IU/L and their estradiol (E2) levels were below 20 pg/mL.

## C#C[C@]1(O)CC[C@H]2[C@@H]3[C@H](C)CC4=C(CCC(=O)C4)[C@H]3CC[C@@]21C [Tibolone, (7α, 17α)-17-hydroxy-7-methyl-19-nor-17-pregn-5(10)-en-20-yn-3-one]
  effect on irregular bleeding: minimal effect
